Measured values published in patent publication US8895585B2, “Nicotinamide derivative or salt thereof” (FUJIFILM Corporation, priority 2010, dated 2014).

Tests used:
THP-1 cells [1] = experiment: TNFα generation assay; format: cell-based, human; conditions: Table 22, read-out: IC50 in TNFα generation assay
Method in brief: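 Secreted TNFα in supernatant quantified by ELISA or AlphaLISA after 7 h culture on human IgG-coated wells (10 μg/ml coating). Cells were IFN-γ-differentiated THP-1 (10 ng/ml, 2 days), exposed to compound for 30 min at room temperature before plating.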

THP-1 cells [2] = experiment: Antibody-dependent phagocytosis assay; format: cell-based; conditions: Homo sapiens; THP-1 cells induced to differentiate with IFNγ; opsonized Escherichia coli; Table 23; read-out: IC50 upon phagocytosis inhibition
Description: THP-1 cells (2×10^5 cells/ml) which are human monocyte-like cell line were cultured in the presence of 10 ng/ml IFNγ for 2 days, so that the cells were induced to differentiate into macrophage-like cells. THP-1 cells that had been induced to differentiate were collected. The cells (5×10^4 cells/well) were reacted with test compounds having given concentrations at room temperature for 30 minutes. Thereafter, Escherichia coli (Life Technologies) labeled with a pH-sensitive dye (pHrodo) was subjected to opsonization using an anti-Escherichia coli antibody (Molecular Probes). Then, the resultant was added to THP-1 cells mixed with test compounds that had been induced to differentiate, followed by incubation at 37° C. for 3 hours. At the time of addition of opsonized Escherichia coli, cell-permeable fluorescent dye (Calcein AM) were simultaneously added thereto, and phagocytosis of opsonized Escherichia coli in viable cells was quantitatively determined using an IN Cell Analyzer.
In addition, the following are used in Table 23 to denote standards for evaluating IC50 upon phagocytosis inhibition. • A: Up to 1 μM • B: 1 to 3 μM • C: 3 to 6 μM

[3] = target: T1, glutathione S-transferase (GST)-fused full-length human Syk protein (Homo sapiens, UniProt P43405); experiment: Syk enzyme assay; format: biochemical; conditions: Syk enzyme assay, Test Example 1; read-out: IC50 of Syk-inhibitory activity
T1 construct: (GST)-fused full-length human Syk protein; GST (glutathione S-transferase); purchased Carna Biosciences
Method in brief: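 IC50 values come from a time-resolved FRET readout (615 and 665 nm) of substrate phosphorylation, measured after an EDTA stop and 1 h antibody binding. The kinase reaction ran 40 min at room temperature with 27 μM ATP and 0.4 μM biotin-peptide, following a 15 min compound preincubation with baculovirus-made GST-full-length human Syk.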

[4] = Homo sapiens, THP-1, THP-1 cells

Row | SMILES | IC50 (THP-1 cells [1]; [4]) | IC50 (THP-1 cells [2]) | IC50 [3] | IC50 (THP-1 cells [1]; THP-1 cells)
1 | NC(=O)c1cc(F)c(N[C@@H]2CCCC[C@@H]2N)nc1Nc1ccnc2[nH]ccc12 (relative stereo) [Example 004-060] | < 65 nM | 1000 to 3000 nM | < 10 nM | –
2 | NC(=O)c1cc(F)c(N[C@@H]2CCCC[C@@H]2N)nc1Nc1cc(F)c2[nH]ccc2c1 (relative stereo) [Example 004-079, 6-(cis-2-aminocyclohexylamino)-5-fluoro-2-((7-fluoro-1H-indol-5-yl)amino)nicotinamide] | < 65 nM | 1000 to 3000 nM | < 10 nM | –
3 | COc1cccc2cc(Nc3nc(N[C@@H]4CCCC[C@@H]4N)c(F)cc3C(N)=O)cnc12 (relative stereo) [Example 004-120, 6-(cis-2-aminocyclohexylamino)-5-fluoro-2-((8-methoxyquinolin-3-yl)amino)nicotinamide] | – | < 1000 nM | < 10 nM | –
4 | N#Cc1cc(Nc2nc(N[C@@H]3CCCC[C@@H]3N)c(F)cc2C(N)=O)cnc1N1CCOCC1 (relative stereo) [Example 004-228, 6-((cis-2-aminocyclohexyl)amino)-2-((5-cyano-6-morpholinopyridin-3-yl)amino)-5-fluoronicotinamide] | 65 to 130 nM | 1000 to 3000 nM | 10 to 50 nM | –
5 | NC(=O)c1cc(F)c(NC2CCCCC2N)nc1Nc1cncc(-c2ccccc2)c1 (centres unmarked) [Example 002-001] | < 65 nM | 1000 to 3000 nM | < 10 nM | –
6 | Cc1ncc(Nc2nc(NC3CCCCC3N)c(F)cc2C(N)=O)cc1-n1nccn1 (centres unmarked) [Example 002-134] | 65 to 130 nM | 1000 to 3000 nM | < 10 nM | –
7 | CC(=O)Nc1cccc2cc(Nc3nc(N[C@@H]4CCCC[C@@H]4N)c(F)cc3C(N)=O)cnc12 [Example 004-008] | < 65 nM | < 1000 nM | < 10 nM | –
8 | Cn1ccc2c(Nc3nc(N[C@@H]4CCCC[C@@H]4N)c(F)cc3C(N)=O)ccnc21 [Example 004-013] | < 65 nM | 1000 to 3000 nM | < 10 nM | –
9 | Cc1ccc(Nc2nc(N[C@@H]3CCCC[C@@H]3N)c(F)cc2C(N)=O)cn1 [Example 004-017] | – | 3000 to 6000 nM | 10 to 50 nM | 65 to 130 nM
10 | COc1cncc(Nc2nc(N[C@@H]3CCCC[C@@H]3N)c(F)cc2C(N)=O)c1 [Example 004-031] | 130 to 200 nM | 1000 to 3000 nM | < 10 nM | –
11 | NC(=O)c1cc(F)c(N[C@@H]2CCCC[C@@H]2N)nc1Nc1cncc(-n2nccn2)c1 [Example 004-042] | 65 to 130 nM | 1000 to 3000 nM | < 10 nM | –
12 | COc1cc(Nc2nc(NC[C@H](C)N)c(F)cc2C(N)=O)cc(OC)n1 [Example 006-098, (S)-6-((2-aminopropyl)amino)-2-((2,6-dimethoxypyridin-4-yl)amino)-5-fluoronicotinamide] | < 65 nM | < 1000 nM | < 10 nM | –
13 | COCCOc1cc(Nc2nc(N[C@@H](CN)CC(C)C)c(F)cc2C(N)=O)ccn1 [Example 006-157, (R)-6-((1-amino-4-methylpentan-2-yl)amino)-5-fluoro-2-((2-(2-methoxyethoxy)pyridin-4-yl)amino)nicotinamide] | 65 to 130 nM | < 1000 nM | < 10 nM | –
14 | NC(=O)c1cc(F)c(N[C@@H]2CCCC[C@@H]2N)nc1Nc1ccc(N2CCOCC2)nc1 [Example 006-165, 6-(((1R,2S)-2-aminocyclohexyl)amino)-5-fluoro-2-((6-morpholinopyridin-3-yl)amino)nicotinamide] | 65 to 130 nM | 1000 to 3000 nM | 10 to 50 nM | –
15 | COCCOc1ccc2cc(Nc3nc(N[C@@H]4CCCC[C@@H]4N)c(F)cc3C(N)=O)cnc2c1 [Example 006-173, 6-(((1R,2S)-2-aminocyclohexyl)amino)-5-fluoro-2-((7-(2-methoxyethoxy)quinolin-3-yl)amino)nicotinamide] | – | 1000 to 3000 nM | < 10 nM | 65 to 130 nM
16 | Cc1cc(Nc2nc(N[C@@H](CN)CC(C)C)c(F)cc2C(N)=O)cnc1C [Example 006-177, (R)-6-((1-amino-4-methylpentan-2-yl)amino)-2-((5,6-dimethylpyridin-3-yl)amino)-5-fluoronicotinamide] | 130 to 200 nM | 1000 to 3000 nM | < 10 nM | –
17 | CC[C@@H](Nc1nc(Nc2ccc3c(cnn3CC)c2)c(C(N)=O)cc1F)[C@H](C)N [Example 006-211, 6-(((2S,3R)-2-aminopentan-3-yl)amino)-2-((1-ethyl-1H-indazol-5-yl)amino)-5-fluoronicotinamide] | < 65 nM | 1000 to 3000 nM | < 10 nM | –
18 | CCC[C@@H](Nc1nc(Nc2cncc(-n3cccn3)c2)c(C(N)=O)cc1F)[C@H](C)N [Example 006-219, 2-((5-(1H-pyrazol-1-yl)pyridin-3-yl)amino)-6-(((2S,3R)-2-aminohexan-3-yl)amino)-5-fluoronicotinamide] | 65 to 130 nM | 1000 to 3000 nM | < 10 nM | –
19 | CCC[C@@H](Nc1nc(Nc2ccnc(OC)c2)c(C(N)=O)cc1F)[C@H](C)N [Example 006-249, 6-(((2S,3R)-2-aminohexan-3-yl)amino)-5-fluoro-2-((2-methoxypyridin-4-yl)amino)nicotinamide] | < 65 nM | 1000 to 3000 nM | < 10 nM | –
20 | CC[C@@H](Nc1nc(Nc2cncc(-c3ccccc3F)c2)c(C(N)=O)cc1F)[C@H](C)N [Example 006-257, 6-(((2S,3R)-2-aminopentan-3-yl)amino)-5-fluoro-2-((5-(2-fluorophenyl)pyridin-3-yl)amino)nicotinamide] | < 65 nM | 1000 to 3000 nM | < 10 nM | –
21 | CC[C@@H](Nc1nc(Nc2ccc3c(OC)nccc3c2)c(C(N)=O)cc1F)[C@H](C)N [Example 006-263, 6-(((2S,3R)-2-aminopentan-3-yl)amino)-5-fluoro-2-((1-methoxyisoquinolin-6-yl)amino)nicotinamide] | < 65 nM | 1000 to 3000 nM | < 10 nM | –
22 | CC[C@@H](Nc1nc(Nc2cncc(-c3ccccc3)c2)c(C(N)=O)cc1F)[C@H](C)N [Example 006-270, 6-(((2S,3R)-2-aminopentan-3-yl)amino)-5-fluoro-2-((5-phenylpyridin-3-yl)amino)nicotinamide] | < 65 nM | 1000 to 3000 nM | < 10 nM | –
23 | CC[C@@H](Nc1nc(Nc2cncc(-c3cccc(OC)c3F)c2)c(C(N)=O)cc1F)[C@H](C)N [Example 006-278, 6-(((2S,3R)-2-aminopentan-3-yl)amino)-5-fluoro-2-((5-(2-fluoro-3-methoxyphenyl)pyridin-3-yl)amino)nicotinamide] | < 65 nM | 1000 to 3000 nM | < 10 nM | –
24 | CCC[C@@H](Nc1nc(Nc2cncc(F)c2)c(C(N)=O)cc1F)[C@H](C)N [Example 006-301, 6-(((2S,3R)-2-aminohexan-3-yl)amino)-5-fluoro-2-((5-fluoropyridin-3-yl)amino)nicotinamide] | 65 to 130 nM | 1000 to 3000 nM | 10 to 50 nM | –
25 | NC(=O)c1cc(F)c(NC2CCCCC2N)nc1Nc1cccc(C(F)(F)F)c1 (centres unmarked) [Example 008-007] | – | 3000 to 6000 nM | < 10 nM | –
26 | NC(=O)c1cc(Nc2nc(NC3CCCC[C@@H]3N)c(F)cc2C(N)=O)ccn1 (some centres unmarked) [Example 029-012] | – | 3000 to 6000 nM | – | –
